“Also recorded” adds a separate entry of the source. Marks after values point to notes of the source that are not given here.
How the values were obtained:
mGlu4 receptor [1] = molecular target: T1, mGlu4 receptor (Homo sapiens, UniProt Q14833); assay: forskolin-stimulated cAMP assay, PAM mode (EC20 of L-Glu), T-REx 293 cells; type: cell-based; settings: SEM where given; for EC50 / Emax: PAM mode; for EC50: EC20 (3 µM) L-Glu, T-REx 293 cells expressing human mGlu4 receptor; for Emax: T-REx-293, human mGlu4, read-out: GluMax; for Fold shift of L-Glu dose-response curve: in the presence of 10 µM of compound
T1 construct: mGlu4 receptor NM_000841, mGlu7 receptor NM_000844.2, and mGlu8 receptor NM_000845; expressed in transfected cells; host or cells: T-REx 293
T1 sequence (Q14833 33-912): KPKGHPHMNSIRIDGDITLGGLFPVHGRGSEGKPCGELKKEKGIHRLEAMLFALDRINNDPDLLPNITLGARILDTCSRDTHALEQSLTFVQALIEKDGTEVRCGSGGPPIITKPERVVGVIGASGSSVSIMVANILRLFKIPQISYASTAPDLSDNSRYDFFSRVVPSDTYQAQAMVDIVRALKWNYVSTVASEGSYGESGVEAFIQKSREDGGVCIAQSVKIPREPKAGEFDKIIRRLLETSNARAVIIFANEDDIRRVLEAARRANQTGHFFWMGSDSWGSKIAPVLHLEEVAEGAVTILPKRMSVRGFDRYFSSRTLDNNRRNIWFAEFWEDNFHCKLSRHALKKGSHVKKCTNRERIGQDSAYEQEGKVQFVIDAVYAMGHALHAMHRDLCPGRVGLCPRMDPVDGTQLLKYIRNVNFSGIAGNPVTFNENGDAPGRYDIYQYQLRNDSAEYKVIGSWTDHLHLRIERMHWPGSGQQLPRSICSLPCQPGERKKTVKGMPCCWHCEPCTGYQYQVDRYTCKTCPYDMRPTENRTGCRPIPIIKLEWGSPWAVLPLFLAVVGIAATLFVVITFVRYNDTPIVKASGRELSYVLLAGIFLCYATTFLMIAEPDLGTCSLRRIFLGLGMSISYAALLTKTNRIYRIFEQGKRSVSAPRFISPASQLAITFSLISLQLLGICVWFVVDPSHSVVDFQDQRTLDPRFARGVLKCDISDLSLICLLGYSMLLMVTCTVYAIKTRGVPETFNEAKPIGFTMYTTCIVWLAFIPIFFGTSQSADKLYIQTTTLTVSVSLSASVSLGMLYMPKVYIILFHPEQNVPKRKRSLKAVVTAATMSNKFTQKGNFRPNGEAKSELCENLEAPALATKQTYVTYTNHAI
Description: The activity of the compounds was assessed in vitro in a forskolin-stimulated cAMP assay in T-REx 293 cells expressing human mGlu4 receptors in the presence of an EC20 concentration of L-Glu; a PAM was identified if it potentiated cAMP inhibition by the Gi/o-dependent pathway of mGlu4 receptor activation; i.e. if it was able to produce a leftward shift in the potency of the endogenous agonist.
(§1) Determination of the intracellular cAMP through a homogeneous time-resolved fluorescence (HTRF) cAMP dynamic 2 kit from Cisbio (Codolet, France) was described previously by Chruścicka et al.[91]. Briefly, cells were grown in DMEM supplemented with 10% foetal bovine serum (FBS) (tetracycline free). Forty-eight hours before the experiments, mGlu receptor expression was induced by the addition of 0.75 µg/mL tetracycline. Twenty hours before the experiment, FBS and L-Glu were removed from the medium. Thereafter, the cells were scraped and centrifuged. A cell pellet was suspended in Hanks-HEPES (130 mM NaCl, 5.4 mM KCl, 1.8 mM CaCl2, 0.8 mM MgSO4, 0.9 mM NaH2PO4, 20 mM HEPES, and 3.25 mM glucose; pH 7.4). Then, the cell suspension was incubated in the presence of 10 µM forskolin (or 3 µM forskolin for mGlu7 receptor), the agonist L-glutamate and a compound for 5 min. Next, 10 µl of the cell suspension was mixed with 5 µl of cAMP-d2 conjugate and 5 µL of anti-cAMP cryptate conjugate. After 1 h of incubation at rt, the fluorescence at 620 nm and 665 nm was read (Tecan Infinite M1000). The results were calculated as the 665 nm/620 nm ratio multiplied by 10^4. Each sample was prepared in triplicate.
Statistical calculations were performed using GraphPad Prism 5.04 software (GraphPad Software, La Jolla, CA, USA). The curves were fitted to a 3-parametric logistic equation, allowing for the determination of EC50 values. Each data point was analysed in triplicate.

Albino Swiss mice = assay: DOI-induced head twitch test (HTR); type: in vivo; settings: DOI 2.5 mg/kg i.p.
Description: The compounds were dissolved in a small amount of 100% EtOH and then adjusted with 20% cyclodextrin, and the pH was adjusted to 6.0. The investigated compounds were administered intraperitoneally (i.p.) 60 min before the behavioural test. Control drugs i.e. diazepam, clozapine and imipramine (Sigma–Aldrich, St. Louis, USA), were administered i.p. 60 min before the behavioural test. Cyclodextrin (20%) was used as a vehicle. All solutions were prepared immediately prior to the experiments and were administered at a constant volume of 10 ml/kg.
The experiments were performed according to the procedure described in our previous studies[75]^,[80]. Briefly, to habituate mice to the experimental environment, each animal was transferred to a 12 cm (diameter) × 20 cm (height) glass cage lined with sawdust 30 min before treatment. Test compounds were administered intraperitoneally (i.p.) at doses of 2.5, 5, and 10 mg/kg body weight 60 min before the test was performed. The head twitch response (HTR) in mice was induced by DOI (2.5 mg/kg, i.p.). Immediately after treatment, the number of head twitches was counted during a 20 min session. Haloperidol and clozapine were used as the reference compounds at active doses of 0.2 and 5 mg/kg, respectively.

CYP2C19 = molecular target: T2, CYP2C19 (Homo sapiens, UniProt P33261); assay: inhibition of cytochrome P450 isoform activity (fluorescence screening); type: biochemical; settings: screening at 1.1, 3.3 and 10 µM
T2 construct: purchased Corning
T2 sequence (P33261 whole entry, canonical isoform): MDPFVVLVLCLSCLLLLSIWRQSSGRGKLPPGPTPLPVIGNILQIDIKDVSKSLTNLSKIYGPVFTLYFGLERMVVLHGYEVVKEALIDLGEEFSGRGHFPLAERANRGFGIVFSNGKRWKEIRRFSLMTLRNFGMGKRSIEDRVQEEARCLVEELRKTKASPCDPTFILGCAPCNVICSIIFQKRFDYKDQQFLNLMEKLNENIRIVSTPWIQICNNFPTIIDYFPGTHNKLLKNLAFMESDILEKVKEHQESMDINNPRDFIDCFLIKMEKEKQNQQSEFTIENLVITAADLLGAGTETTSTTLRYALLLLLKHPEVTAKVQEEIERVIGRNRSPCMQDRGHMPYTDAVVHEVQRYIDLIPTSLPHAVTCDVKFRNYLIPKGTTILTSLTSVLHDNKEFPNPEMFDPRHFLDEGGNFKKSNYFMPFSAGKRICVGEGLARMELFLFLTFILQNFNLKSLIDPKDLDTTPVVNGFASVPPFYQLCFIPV
Description: (§2) The assays for cytochrome P450 inhibition facilitate the identification of drug candidates with a lower potential for drug-drug interactions. In vitro experiments conducted to determine whether a drug inhibits a specific CYP enzyme involve an incubation of the drug with probe substrates for the CYP enzymes.
(§3) Recombinant cytochrome P450 isoforms available for the assay: CYP1A2, CYP2B6, CYP2C9, CYP2C19, CYP2D6 and CYP3A4 isoform with various probe substrates enabling fluorescence detection.
(§4) The examined compound was prepared as a 10 mM stock solution in DMSO. The following three concentrations of the test compound were used for screening determination: 1.1, 3.3 and 10 μM. […] Plates filled with solution of cofactors (NADP, G6P, MgCl2, G6PDH) as well as examined compound were scanned with a fluorescence plate reader in order to eliminate false results originating from autofluorescence of the test compounds. […] At the end of the incubation, the reaction was stopped and the fluorescence of the product was determined continuously with the specific for every product excitation as well as emission values with the use of multiwell plate scanner equipped with fluorescence measurement (Fluorescence EnSpire Multimode Plate Reader).

CYP2C9 = molecular target: T3, CYP2C9 (Homo sapiens, UniProt P11712); assay: as above; type: biochemical; settings: screening at 1.1, 3.3 and 10 µM
T3 construct: purchased Corning
T3 sequence (P11712 whole entry): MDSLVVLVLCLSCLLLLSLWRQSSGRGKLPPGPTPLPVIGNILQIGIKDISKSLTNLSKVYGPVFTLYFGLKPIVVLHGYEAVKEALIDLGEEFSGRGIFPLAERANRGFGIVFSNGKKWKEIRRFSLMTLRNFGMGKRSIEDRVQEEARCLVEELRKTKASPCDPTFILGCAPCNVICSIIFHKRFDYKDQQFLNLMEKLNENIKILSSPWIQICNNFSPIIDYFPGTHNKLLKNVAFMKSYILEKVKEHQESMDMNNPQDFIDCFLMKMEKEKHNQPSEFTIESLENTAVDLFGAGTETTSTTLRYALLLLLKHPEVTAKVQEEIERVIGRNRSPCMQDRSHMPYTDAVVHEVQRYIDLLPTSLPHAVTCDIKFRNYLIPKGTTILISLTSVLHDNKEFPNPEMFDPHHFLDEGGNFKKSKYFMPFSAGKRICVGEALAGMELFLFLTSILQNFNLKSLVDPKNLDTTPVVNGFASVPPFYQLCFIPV
Description: as §2, §3, §4

mGlu4 receptor [2] = molecular target: T1, mGlu4 receptor; assay: forskolin-induced cAMP assay, agonist mode, T-REx 293 cells; type: cell-based
Description: The compounds were tested in the agonist, PAM (in the presence of EC20 concentration of L-Glu) or NAM (with EC80 of L-Glu) modes of forskolin-induced cAMP using T-REx 293 cells expressing the protein of a given receptor.
as §1

[3] = 2.5 mg/kg i.p., 60 min before test
[4] = 10 mg/kg i.p., 60 min before test
[5] = over the doses 2.5, 5 and 10 mg/kg i.p.

Row | SMILES | EC50 (mGlu4 receptor [1]) [nM] | Emax (mGlu4 receptor [1]) [%] | Fold shift of L-Glu dose-response curve (mGlu4 receptor [1]) | effect on DOI-induced HTR (Albino Swiss mice; [3]) | effect on DOI-induced HTR (Albino Swiss mice; 5 mg/kg i.p., 60 min before test) | effect on DOI-induced HTR (Albino Swiss mice; [4]) | effect on DOI-induced HTR (Albino Swiss mice; [5]) | IC50 (CYP2C19) [nM] | IC50 (CYP2C9) [nM] | EC50 (mGlu4 receptor [2]) [nM]
1 | O=C(Nc1ccc(-c2noc(-c3ccccc3Cl)n2)c(C(F)(F)F)c1)c1ccccn1 [Compound 60] | 390 | 120 | 2.94 (0.1)^d | significant reductions in the HTR score | not statistically significant | significant reductions in the HTR score | significant anxiolytic- and antipsychotic-like properties | – | – | –
2 | O=C(Nc1ccc(-c2noc(-c3ccccc3Cl)n2)c(Cl)c1)c1ccccn1 [Compound 52, N-(3-chloro-4-(5-(2-chlorophenyl)-1,2,4-oxadiazol-3-yl)phenyl)picolinamide] | 282 | 123 | 8.03 (0.76)^d | – | – | – | significant anxiolytic- and antipsychotic-like properties; also recorded: at all doses significantly reduced; also recorded: Clear dose-response effects | 3300 to 10000 | 3300 to 10000 | –
3 | COc1cc(NC(=O)c2ccccn2)ccc1-c1noc(-c2ccccc2Cl)n1 [Compound 34] | 656 | 114 | 13.4 (2.00)^d | statistically significant effect; also recorded: significant reductions in the HTR score | – | statistically significant effect; also recorded: significant reductions in the HTR score | significant anxiolytic- and antipsychotic-like properties | – | – | 1110
4 | COc1cc(NC(=O)c2ccccn2)ccc1-c1noc(-c2ccccc2F)n1 [Compound 37] | 393 | 116 | 3.68 (0.19)^d | – | – | – | significant anxiolytic- and antipsychotic-like properties; also recorded: reversed the DOI-induced effect at all investigated doses; also recorded: dose-dependent reverse effects | – | – | 3940
